Consider 35 molecules from US11760722B2 (priority 2022, dated 2023).

One assay has as its system SARS-CoV-2 replicon. Kind of assay: microbe, parasite or virus in culture. As to conditions: read-out: Replicon EC50. Format: cell-based. A general note: Replicon systems follow genome replication, usually without infectious particles.
The subject of assay [1] is human coronavirus (HCoV) 229E. Kind of assay: microbe, parasite or virus in culture. The settings on record: MRCS cells, HCoV 229E, 3 days, CellTiter Glo, read-out: 229E CPE EC50. Format: cell-based, human coronavirus 229E. (ATP-based viability assays read luminescence as a measure of living cells.)
Procedure: Test compounds were provided by the sponsor. Reference compound remdesivir was provided by WuXi AppTec. Compounds were assayed at 8 concentrations (to be defined by sponsor), in duplicate wells.
MRCS cells were obtained from the ATCC, and maintained in the Minimum Essential Medium supplemented with 10% FBS, 1% L-glutamine, 1% NEAA and 1% penicillin-streptomycin. Minimum Essential Medium supplemented with 5% FBS, 1% L-glutamine, 1% NEAA and 1% penicillin-streptomycin was used as the assay medium.
Cells were seeded in 96 well plates, in 100 μl per well of assay medium, and cultured at 37° C. and 5% CO2 overnight. Next day, test compound was diluted with assay medium and then added into the cells, 50 μl per well. Then 50 μl per well of assay medium diluted virus was added. The final volume of the cell culture was 200 μl per well. […] The CPE were measured by CellTiter Glo following the manufacturer's manual. The antiviral activity of compounds was calculated based on the protection of the virus-induced CPE at each concentration normalized by the virus control.
EC50 and CC50 values were calculated using the GraphPad Prism software using the nonlinear regression model of log(inhibitor) vs. response—Variable slope (four parameters).
Where [2] appears, read: unidentified human coronavirus, 72 h.
The mark [3] stands for this setting: Severe acute respiratory syndrome coronavirus 2, Huh-7, 24 h.

SMILES strings stand for the structures. Where “and” joins values, the source holds several entries; their conditions need not be identical. Identical values can stand only once. Like-named read-outs stand apart in the source and are kept apart here.

The term EC50 denotes the concentration that produces a half-maximal response. In the case of `CC(C)(C)[C@H](NS(=O)(=O)c1ccc(C(F)(F)F)cc1)C(=O)N1C[C@H]2[C@@H]([C@H]1C(=O)N[C@H](C#N)C[C@@H]1CCNC1=O)C2(C)C` [Compound 90], the EC50 with SARS-CoV-2 replicon is 67 nM and 76 nM; in assay [1], 387 nM; in assay [1] (setting [2]), 254 nM.
`CC1(C)[C@@H]2[C@@H](C(=O)N[C@H](C#N)C[C@@H]3CCNC3=O)N(C(=O)[C@@H](NC(=O)C(F)(F)F)C34CC(C(F)(F)F)(C3)C4)C[C@@H]21` [Compound 91]: the EC50 came to 330 nM in the assay on SARS-CoV-2 replicon (setting [3]) and 10900 nM in assay [1] (setting [2]).
The corresponding values for `C=C(C(=O)N[C@H](C(=O)N1C[C@H]2[C@@H]([C@H]1C(=O)N[C@H](C#N)C[C@@H]1CCNC1=O)C2(C)C)C(C)(C)C)C(F)(F)F` [Compound 92] are 1760 nM and 17100 nM.
As to `CC(C)(C)[C@H](NC(=O)c1ccc(F)cc1)C(=O)N1C[C@H]2[C@@H]([C@H]1C(=O)N[C@H](C#N)C[C@@H]1CCNC1=O)C2(C)C` [Compound 94], the EC50 is 960 nM with SARS-CoV-2 replicon (setting [3]) and 4290 nM in assay [1] (setting [2]).
On to `CC(C)(C)[C@H](NS(=O)(=O)c1ccccc1)C(=O)N1C[C@H]2[C@@H]([C@H]1C(=O)N[C@H](C#N)C[C@@H]1CCNC1=O)C2(C)C` [Compound 95], for which the EC50 in the assay with SARS-CoV-2 replicon (setting [3]) amounted to 37 nM; with SARS-CoV-2 replicon it was 68 nM; in assay [1], 521 nM; in assay [1] (setting [2]) it was 358 nM.
On to `COC(=O)NS(=O)(=O)N[C@H](C(=O)N1C[C@H]2[C@@H]([C@H]1C(=O)N[C@H](C#N)C[C@@H]1CCNC1=O)C2(C)C)C(C)(C)C` [Compound 97], for which the EC50 is above 10000 nM in the assay with SARS-CoV-2 replicon (setting [3]) and above 30000 nM in assay [1] (setting [2]).
Taken in the same sequence, the figures for `CC(C)(C)[C@H](NS(=O)(=O)C[C@]12CC[C@H](CC1=O)C2(C)C)C(=O)N1C[C@H]2[C@@H]([C@H]1C(=O)N[C@H](C#N)C[C@@H]1CCNC1=O)C2(C)C` [Compound 98] were 3650 nM and 3310 nM.
Regarding `CC(C)(C)[C@H](NS(=O)(=O)c1ccc(F)c(F)c1)C(=O)N1C[C@H]2[C@@H]([C@H]1C(=O)N[C@H](C#N)C[C@@H]1CCNC1=O)C2(C)C` [Compound 99], the EC50 came to 88 nM with SARS-CoV-2 replicon (setting [3]), 100 nM in the assay on SARS-CoV-2 replicon, 344 nM in assay [1] and 271 nM in assay [1] (setting [2]).
Taken in the same sequence, the figures for `COc1ccc(S(=O)(=O)N[C@H](C(=O)N2C[C@H]3[C@@H]([C@H]2C(=O)N[C@H](C#N)C[C@@H]2CCNC2=O)C3(C)C)C(C)(C)C)cc1` [Compound 101] were 24 nM, 41 nM, 910 nM and 514 nM.
Turning to `CC(C)(C)[C@H](NC(=O)C(F)(F)F)C(=O)N1C[C@H]2[C@@H]([C@H]1C(=O)N[C@H](/C=C/C#N)C[C@@H]1CCNC1=O)C2(C)C` [Compound 103], the EC50 in the assay on SARS-CoV-2 replicon (setting [3]) came out at 650 nM; in assay [1] (setting [2]), 16900 nM.
Regarding `CN(C)C(C)(C)C(=O)N[C@H](C(=O)N1C[C@H]2[C@@H]([C@H]1C(=O)N[C@H](C#N)C[C@@H]1CCNC1=O)C2(C)C)C(C)(C)C` [Compound 104], the EC50 with SARS-CoV-2 replicon (setting [3]) is above 10000 nM; in assay [1] (setting [2]) it was 12700 nM.
On to `CC1(C)[C@@H]2[C@@H](C(=O)N[C@H](C#N)C[C@@H]3CCNC3=O)N(C(=O)[C@@H](NC(=O)C(F)(F)F)c3ccc(F)cc3)C[C@@H]21` [Compound 105], for which the results for the EC50 (in the assay with SARS-CoV-2 replicon (setting [3]); in assay [1] (setting [2])) were 650 nM and 6180 nM, respectively.
As to `CC(C)(C)[C@H](NC(=O)c1ccc2ccccc2c1)C(=O)N1C[C@H]2[C@@H]([C@H]1C(=O)N[C@H](C#N)C[C@@H]1CCNC1=O)C2(C)C` [Compound 106], the EC50 with SARS-CoV-2 replicon (setting [3]) was found to be 860 nM; in assay [1] (setting [2]), 4020 nM.
`CC(C)(C)[C@H](NC(=O)c1ccccn1)C(=O)N1C[C@H]2[C@@H]([C@H]1C(=O)N[C@H](C#N)C[C@@H]1CCNC1=O)C2(C)C` [Compound 107]: the EC50 was 3770 nM in the assay with SARS-CoV-2 replicon (setting [3]) and 23300 nM in assay [1] (setting [2]).
For `CC(C)(C)[C@H](NC(=O)c1ccc(F)c(F)c1)C(=O)N1C[C@H]2[C@@H]([C@H]1C(=O)N[C@H](C#N)C[C@@H]1CCNC1=O)C2(C)C` [Compound 108], the EC50 came out at 330 nM in the assay with SARS-CoV-2 replicon (setting [3]) and 3900 nM in assay [1] (setting [2]).
As to `CC(C)(C)[C@H](NC(=S)N1CCCCC1)C(=O)N1C[C@H]2[C@@H]([C@H]1C(=O)N[C@H](C#N)C[C@@H]1CCNC1=O)C2(C)C` [Compound 109], the EC50 was 875 nM in the assay on SARS-CoV-2 replicon (setting [3]) and 985 nM in assay [1] (setting [2]).
Taken in the same sequence, the figures for `CC(C)[C@H]1CC[C@H](C)C[C@@H]1OCC(=O)N[C@H](C(=O)N1C[C@H]2[C@@H]([C@H]1C(=O)N[C@H](C#N)C[C@@H]1CCNC1=O)C2(C)C)C(C)(C)C` [Compound 110] were 1360 nM and 23500 nM.
For `CC(C)(C)[C@H](NS(=O)(=O)c1cc2ccccc2s1)C(=O)N1C[C@H]2[C@@H]([C@H]1C(=O)N[C@H](C#N)C[C@@H]1CCNC1=O)C2(C)C` [Compound 111], the results for the EC50 (in the assay with SARS-CoV-2 replicon (setting [3]); in the assay with SARS-CoV-2 replicon; in assay [1] (setting [2])) were 3.4 nM, 4.6 nM and 130 nM, respectively.
Consider `CC(C)(C)[C@H](NC(=O)C1(CS(=O)(=O)C(C)(C)C)CCCCC1)C(=O)N1C[C@H]2[C@@H]([C@H]1C(=O)N[C@H](C#N)C[C@@H]1CCNC1=O)C2(C)C` [Compound 115], for which the EC50 was 3000 nM with SARS-CoV-2 replicon (setting [3]) and above 30000 nM in assay [1] (setting [2]).
Take `CN(C)[C@@H]1C[C@@H](C(=O)N[C@H](C#N)C[C@@H]2CCNC2=O)N(C(=O)[C@@H](NC(=O)C(F)(F)F)C(C)(C)C)C1` [Compound 116]: the EC50 with SARS-CoV-2 replicon (setting [3]) was 740 nM; in assay [1] (setting [2]), above 30000 nM.
The corresponding values for `CC(C)(C)[C@H](NC(=O)c1cccc2ccccc12)C(=O)N1C[C@H]2[C@@H]([C@H]1C(=O)N[C@H](C#N)C[C@@H]1CCNC1=O)C2(C)C` [Compound 119] are 340 nM and 546 nM.
Taken in the same sequence, the figures for `CC(C)(C)[C@H](NC(=O)c1ccc2c(c1)CCC2)C(=O)N1C[C@H]2[C@@H]([C@H]1C(=O)N[C@H](C#N)C[C@@H]1CCNC1=O)C2(C)C` [Compound 120] were 2240 nM and 4720 nM.
Take `CC(C)(C)[C@H](NS(=O)(=O)c1ccns1)C(=O)N1C[C@H]2[C@@H]([C@H]1C(=O)N[C@H](C#N)C[C@@H]1CCNC1=O)C2(C)C` [Compound 122]: the half-maximal effective concentration (EC50) in the assay on SARS-CoV-2 replicon (setting [3]) was 47 nM; in the assay with SARS-CoV-2 replicon, 62 nM; in assay [1] (setting [2]) it was 147 nM.
With `CC(C)(C)[C@H](NC(=S)NC1CC(F)(F)C1)C(=O)N1C[C@H]2[C@@H]([C@H]1C(=O)N[C@H](C#N)C[C@@H]1CCNC1=O)C2(C)C` [Compound 123], the EC50 with SARS-CoV-2 replicon (setting [3]) was found to be 790 nM; in assay [1] (setting [2]), 700 nM.
Taken in the same sequence, the figures for `CC(C)(C)[C@H](NC(=S)NC1CCC1)C(=O)N1C[C@H]2[C@@H]([C@H]1C(=O)N[C@H](C#N)C[C@@H]1CCNC1=O)C2(C)C` [Compound 124] were 500 nM and 801 nM.
As to `CC(C)(C)[C@H](NC(=S)NC1CCC1)C(=O)N1C[C@H]2[C@@H]([C@H]1C(=O)N[C@H](C#N)C[C@@H]1CCN(C(=O)C(F)(F)F)C1=O)C2(C)C` [Compound 125], the EC50 amounted to 68 nM with SARS-CoV-2 replicon (setting [3]) and 708 nM in assay [1] (setting [2]).
The corresponding values for `CC1(NC(=S)N[C@H](C(=O)N2C[C@H]3[C@@H]([C@H]2C(=O)N[C@H](C#N)C[C@@H]2CCNC2=O)C3(C)C)C(C)(C)C)CC1` [Compound 126] are 24 nM and 193 nM.
The corresponding values for `CNC(=O)N[C@H](C(=O)N1C[C@H](N(C)C)C[C@H]1C(=O)N[C@H](C#N)C[C@@H]1CCNC1=O)C(C)(C)C` [Compound 128] are above 10000 nM and above 30000 nM.
As to `COC(=O)N[C@H](C(=O)N1C[C@H](N(C)C)C[C@H]1C(=O)N[C@H](C#N)C[C@@H]1CCNC1=O)C(C)(C)C` [Compound 129], the EC50 in the assay with SARS-CoV-2 replicon (setting [3]) was 6870 nM; in assay [1] (setting [2]), above 30000 nM.
`COc1ccccc1S(=O)(=O)N[C@H](C(=O)N1C[C@H]2[C@@H]([C@H]1C(=O)N[C@H](C#N)C[C@@H]1CCNC1=O)C2(C)C)C(C)(C)C` [Compound 130]: the half-maximal effective concentration (EC50) in the assay on SARS-CoV-2 replicon (setting [3]) was 93 nM; in the assay on SARS-CoV-2 replicon, 130 nM; in assay [1] it was 1230 nM; in assay [1] (setting [2]) it was 1090 nM.
As to `C=CCS(=O)(=O)N[C@H](C(=O)N1C[C@H]2[C@@H]([C@H]1C(=O)N[C@H](C#N)C[C@@H]1CCNC1=O)C2(C)C)C(C)(C)C` [Compound 131], the values for the EC50 (in the assay with SARS-CoV-2 replicon (setting [3]); in the assay with SARS-CoV-2 replicon; in assay [1] (setting [2])) were 120 nM, 180 nM and 657 nM, respectively.
As to `CC(C)(C)[C@H](NS(=O)(=O)CC#N)C(=O)N1C[C@H]2[C@@H]([C@H]1C(=O)N[C@H](C#N)C[C@@H]1CCNC1=O)C2(C)C` [Compound 132], the EC50 in the assay on SARS-CoV-2 replicon (setting [3]) amounted to 64 nM; with SARS-CoV-2 replicon, 75 nM; in assay [1] it was 591 nM; in assay [1] (setting [2]) it was 589 nM.
For `CC(C)c1cc(C(C)C)c(S(=O)(=O)N[C@H](C(=O)N2C[C@H]3[C@@H]([C@H]2C(=O)N[C@H](C#N)C[C@@H]2CCNC2=O)C3(C)C)C(C)(C)C)c(C(C)C)c1` [Compound 134], the results for the EC50 (with SARS-CoV-2 replicon (setting [3]); in the assay with SARS-CoV-2 replicon; in assay [1] (setting [2])) were 7990 nM, above 10000 nM and above 30000 nM, respectively.
As to `CC(C)(C)[C@H](NS(=O)(=O)c1cc2c(s1)CCCC2)C(=O)N1C[C@H]2[C@@H]([C@H]1C(=O)N[C@H](C#N)C[C@@H]1CCNC1=O)C2(C)C` [Compound 135], the EC50 in the assay with SARS-CoV-2 replicon (setting [3]) worked out at 24 nM; with SARS-CoV-2 replicon, 34 nM; in assay [1], 67 nM; in assay [1] (setting [2]), 64 nM.
`CC(C)(C)[C@H](NC(=O)CCC(F)(F)F)C(=O)N1C[C@H]2[C@@H]([C@H]1C(=O)N[C@H](C#N)C[C@@H]1CCNC1=O)C2(C)C` [Compound 138]: the EC50 in the assay with SARS-CoV-2 replicon (setting [3]) turned out to be 330 nM; in the assay with SARS-CoV-2 replicon it was 500 nM; in assay [1] (setting [2]), 622 nM.
